Results published in PMC6611794, “Development of a high-throughput strategy for discovery of potent analogues of antibiotic lysocin E” (Nature Communications, 2019).
Where two headings read alike, the source gives them in different places. Where a SMILES comes first, the peptide text is derived from it. Bridges are numbered along the chain shown (N, C = ends). [ ]: non-standard residue; d: D form. The star is where a group is joined. Hexanoyl(3R-OH,5-Me) = CC(C)C[C@@H](O)CC(=O)*; dNMeF = CN[C@H](Cc1ccccc1)C(=O)O; dOrn = NCCC[C@@H](N)C(=O)O

Experiments:
[1] = system: S. aureus Smith ATCC 13709; assay: Antimicrobial activity assay of bead-derived peptides (one-bead, microscale); type: cell-based, Staphylococcus aureus; design: key to antimicrobial activity: ++: inhibition; +: partial inhibition; -: no inhibition; details: 85% of one-bead-derived crude peptide; 40 μL Mueller Hinton Broth with 10% calf serum; 37 °C, 18 h
Experimental: Finally, a microscale antimicrobial assay was developed to evaluate the activity of 1 in solution phase.
Antimicrobial activity assay of bead-derived peptides. To the crude peptides in the 96-well round-bottom plate was added DMSO (1 µL/well). To the solution of peptides in each well was added a suspension of S. aureus Smith ATCC 13709 strain in 10% calf serum containing cation adjusted Müller Hinton Broth [40 µL, 2 ×10^5 colony forming units (CFU) , 21 g/L Müller Hinton Broth (Difco), 5 0 mg/L Ca2+ (adjusted with CaCl2• 2H2O), and 25 mg/L Mg 2+ (adjusted with MgCl 2•6H2O)]. The plate was incubated at 37 °C for 18 h, and the precipitation of the grown cells was examined. […]

[2] = Liposomal membrane disruption assay (carboxyfluorescein LUVs); type: biochemical
Experimental: (§1) Preparation of LUVs consisting of PC/PG/MK-4 or PC/PG/UQ-10. To a solution of egg yolk phosphatidylcholine (9.48 mg, 12.4 µmol) and egg yolk phosphatidylglycerol (9.66 mg, 12.4 µmol) in CHCl3 (0.208 mL) was added a solution of MK-4 (2) or UQ-10 (3) (0.313 µmol) in CHCl3 (21.8 µL). The solution was concentrated, and dried under vacuum to for m a lipid thin film. The thin film was hydrated and suspended in carboxyfluorescein-containing buffer solution (0.500 mL, 5 mM HEPES, 20 mM carboxyfluorescein , pH 7.5) by vortexing and sonication. After five-times freeze-thaw cycles, the lipid suspension was extruded 19 times through a polycarbonate filter with 0.40 µm of pore siz e in the diameter.
(§2) The external carboxyfluorescein -containing buffer was replaced with a carboxyfluorescein -free buffer solution (20 mM HEPES, 1 mM EDTA, pH 7.5) through size exclusion chromatography using disposable PD -10 column. Concentration of egg yolk phosphatidylcholine was determined by using Phospholipid C -Test Wako.
(§3) The final concentration of egg yolk phosphatidylcholine was adjusted to 4.0 µM with the carboxyfluorescein -free buffer solution, and the solution was used for membrane disruption ass ay.
(§4) Membrane disruption assay. Peptides 1, A1–A22, B1–B5, and C1–C5 were diluted with MeOH/H2O (4/6) to various concentrations as 5-fold serial dilutions. The solution of peptides (2 µL/well) and the carboxyfluorescein-encapsulated LUV suspension (200 µL/well) were mixed in black polystyrene flat-bottom 96-well plates. The final concentration of peptides ranged from 2970 nM to 0.950 nM. The plates were vortexed at room temperature for 30 min, and then fluorescence of carboxyfluorescein (Ex. 490 nm/Em. 517 nm) of each well was measured at room temperature on Gemini EM microplate reader. Trion X-100/H2O (5/95, 2 µL), MeOH/H2O (4/6, 2 µL), and the LUV suspension were mixed in each plate to determine 100% lysis. MeOH/H2O (4/6, 2 µL) and the LUV suspension were mixed in each plate to determine 0% lysis.
(§5) The membrane disruption activities of tested peptides (I) were normalized against 100% lysis by Triton X -100 […]
(§6) (Imax) and 0% lysis by MeOH/H2O (4/6) (I0) as following, where Ix is the fluorescence intensity (Supplementary Equation 2).
(§7) I = 100 × (Ix – I0) / (Imax – I0) (2)
(§8) The membrane-disrupting activities were evaluated as half-maximal response (EC50, nM) values by means of three replicates. Sigmoidal curve fittings were performed on R2 with drc package (Supplementary Figs S7–S9).3 Two-parameter logistic model was applied for the fitting.

[3] = as above; type: biochemical; remark: listed apart in the source
Experimental: Preparation of LUVs consisting of PC/PG. Carboxyfluorescein-encapsulated large unilamellar vesicles (LUVs) were prepared according to the thin-film hydration method, followed by extrusion through Nuclepore polycarbonate filters (GE Healthcare) mounted in the mini-extruder apparatus (Avanti Polar Lipids). A solution of egg yolk phosphatidylcholine (9.60 mg, 12.5 µmol) and egg yolk phosphatidylglycerol (9.78 mg, 12.5 µmol) in CHCl3 (0.505 mL) was concentrated, and dried under vacuum to form a lipid thin film. The thin film was hydrated and suspended in carboxyfluorescein-containing buffer solution [0.500 mL, 5 mM 4-(2-hydroxyethyl)-1-piperazineethanesulfonic acid (HEPES), 20 mM carboxyfluorescein, pH 7.5] by vortexing and sonication. After five -times freeze-thaw cycles, the lipid suspension was extruded 19 times through a polycarbonate filter with 0.40 µm of pore size in the diameter. The external carboxyfluorescein -containing buffer was replaced w ith a carboxyfluorescein -free buffer solution [20 mM HEPES, 1 mM ethylenediaminetetraacetic acid (EDTA), pH 7.5] through size exclusion chromatography using disposable PD-10 column (GE Healthcare). Concentration of egg yolk phosphatidylcholine was determined by using Phospholipid C-Test Wako (Fujifilm Wako Pure Chemical). The final concentration of egg yolk phosphatidylcholine was adjusted to 4.0 µM with the carboxyfluorescein-free buffer solution, and the solution was used for membrane disruption assay. […]
(§9) Membrane disruption assay. […]
as §4, with “to” for “Membrane disruption assay. Peptides 1, A1–A22, B1–B5, and C1–C5 were diluted with MeOH/H2O (4/6) to”
as §5, §6, §7, §8

[4] = Experimental: as §1, §2, §3, §9
as §4, with “to” for “Membrane disruption assay. Peptides 1, A1–A22, B1–B5, and C1–C5 were diluted with MeOH/H2O (4/6) to”
as §5, §6, §7, §8

[5] = PC/PG/3 LUVs, 1st experiment, read-out: EC50 PC/PG/3 1st
[6] = PC/PG/3 LUVs, 2nd experiment, read-out: EC50 PC/PG/3 2nd
[7] = PC/PG/3 LUVs, 3rd experiment, read-out: EC50 PC/PG/3 3rd
[8] = 30 min, room temperature, mean ± SD of three independent experiments, read-out: EC50 PC/PG
[9] = PC/PG LUVs, 1st experiment, read-out: EC50 PC/PG 1st
[10] = PC/PG LUVs, 2nd experiment, read-out: EC50 PC/PG 2nd
[11] = PC/PG LUVs, 3rd experiment, read-out: EC50 PC/PG 3rd
[12] = read-out: EC50 PC/PG/2 1st, PC/PG/2 LUVs, 1st experiment
[13] = read-out: EC50 PC/PG/2 2nd, PC/PG/2 LUVs, 2nd experiment
[14] = read-out: EC50 PC/PG/2 3rd, PC/PG/2 LUVs, 3rd experiment
[15] = read-out: EC50 PC/PG/2, 30 min, room temperature, mean ± SD of three independent experiments
[16] = 30 min, room temperature, mean ± SD of three independent experiments, read-out: EC50 PC/PG/3

EC50 [2, 5]	EC50 [2, 6]	EC50 [2, 7]	EC50 [3, 8]	EC50 [3, 9]	EC50 [3, 10]	EC50 [3, 11]	EC50 [4, 12]	EC50 [4, 13]	EC50 [4, 14]	EC50 [4, 15]	EC50 [2, 16]	SMILES	antimicrobial activity [1]	selectivity index (EC50 against PC/PG/3 divided by EC50 against PC/PG/2) [4]
999 nM	> 1500 nM	867 nM	> 1500 nM	> 1500 nM	> 1500 nM	> 1500 nM	118 nM	79.1 nM	31.9 nM	76.3 ± 43.1 nM	–	CC[C@H](C)[C@@H]1NC(=O)[C@@H](Cc2c[nH]c3ccccc23)NC(=O)[C@@H](CCCN)NC(=O)[C@H](CCC(=O)O)NC(=O)[C@@H](CCCNC(=N)N)NC(=O)[C@H](CC(C)C)NC(=O)[C@@H](Cc2ccccc2)N(C)C(=O)CNC(=O)[C@H](CC(N)=O)NC(=O)[C@@H](CCCNC(=N)N)NC(=O)[C@@H](NC(=O)C[C@H](O)CC(C)C)[C@@H](C)OC(=O)[C@H]([C@@H](C)O)NC1=O [Peptide A14] ({Hexanoyl(3R-OH,5-Me)}-T[dR]NG[dNMeF]L[dR]E[dOrn][dW]IT; ester 1-C)	+	> 19.7
231 nM	383 nM	189 nM	1010 ± 210 nM	1260 nM	889 nM	895 nM	57.6 nM	39.6 nM	9 nM	35.4 ± 24.6 nM	268 ± 102 nM	CC(C)C[C@@H](O)CC(=O)N[C@@H]1C(=O)N[C@H](CCCNC(=N)N)C(=O)N[C@@H](C)C(=O)NCC(=O)N(C)[C@H](Cc2ccccc2)C(=O)N[C@@H](CC(C)C)C(=O)N[C@H](CCCNC(=N)N)C(=O)N[C@@H](CCC(=O)O)C(=O)N[C@H](Cc2ccc(O)cc2)C(=O)N[C@H](Cc2c[nH]c3ccccc23)C(=O)N[C@@H](Cc2ccc(O)cc2)C(=O)N[C@@H]([C@@H](C)O)C(=O)O[C@@H]1C [Peptide A15] ({Hexanoyl(3R-OH,5-Me)}-T[dR]AG[dNMeF]L[dR]E[dY][dW]YT; ester 1-C)	+	–
892 nM	1040 nM	565 nM	> 1500 nM	> 1500 nM	> 1500 nM	> 1500 nM	70.1 nM	33.5 nM	17.1 nM	40.3 ± 27.1 nM	832 ± 243 nM	CC[C@H](C)[C@@H]1NC(=O)[C@@H](Cc2c[nH]c3ccccc23)NC(=O)[C@@H](CCCN)NC(=O)[C@H](CCC(=O)O)NC(=O)[C@@H](CCCNC(=N)N)NC(=O)[C@H](CC(C)C)NC(=O)[C@@H](Cc2ccccc2)N(C)C(=O)CNC(=O)[C@H](CC(=O)O)NC(=O)[C@@H](CCCNC(=N)N)NC(=O)[C@@H](NC(=O)C[C@H](O)CC(C)C)[C@@H](C)OC(=O)[C@H]([C@@H](C)O)NC1=O [Peptide A16] ({Hexanoyl(3R-OH,5-Me)}-T[dR]DG[dNMeF]L[dR]E[dOrn][dW]IT; ester 1-C)	+	20.6
> 1500 nM	> 1500 nM	> 1500 nM	> 1500 nM	> 1500 nM	> 1500 nM	> 1500 nM	437 nM	178 nM	144 nM	253 ± 160 nM	> 1500 nM	CC[C@H](C)[C@@H]1NC(=O)[C@@H](Cc2c[nH]c3ccccc23)NC(=O)[C@@H](Cc2ccc(O)cc2)NC(=O)[C@H](CCC(=O)O)NC(=O)[C@@H](CCCNC(=N)N)NC(=O)[C@H](CC(C)C)NC(=O)[C@@H](Cc2ccccc2)N(C)C(=O)CNC(=O)[C@H](CC(=O)O)NC(=O)[C@@H](CCCNC(=N)N)NC(=O)[C@@H](NC(=O)C[C@H](O)CC(C)C)[C@@H](C)OC(=O)[C@H]([C@@H](C)O)NC1=O [Peptide A17] ({Hexanoyl(3R-OH,5-Me)}-T[dR]DG[dNMeF]L[dR]E[dY][dW]IT; ester 1-C)	+	–
